The record followed here is patent US10525055B2, “Opioid receptor antagonist prodrugs” (Nirsum Laboratories, Inc., priority 2017, dated 2020).

The nature of series [1]: Plasma stability assay, rat plasma. The series is classed as in vitro ADME. To be noted: 37° C., 10 μM. Here is the method:
Plasma stability determination of the test compounds in rat, dog, cynomolgus monkey and human plasma is performed using HPLC-MS. For rat, incubations are carried out in 96-well polypropylene plates in 5 aliquots of 70 μL each (one for each time point). […] Five time points are analyzed (0, 15, 120, 480 and 1440 min). For dog, monkey and human, test compounds (2 μM, final solvent concentration 1%) were also incubated at 37° C. and analyzed at five time points (0, 10, 30, 60 and 120 min). All incubations are performed in duplicates. The samples are analyzed by HPLC-MS. The percentage of parent compound remaining after incubation in plasma is determined.

In another series the target is T1, KOR (Homo sapiens, UniProt P41145).
T1 construct: expressed in transfected cells; membranes prepared from them
Put plainly: Opioid receptor binding assay, KOR ([3H]Diprenorphine). The conditions noted are these: KOR, MaxDose 10000 nM.

Series [2] can be described thus: Solubility determination in oil (cottonseed oil, sesame oil). To be noted: heating temp. 60 °C, obs. temp. 25 °C. Here is the method:
A known amount of test substance (˜40 mg) was weighed into the vial, 100 μL of oil was added and heated to 60° C. and then system was slurried to reach equilibrium. […] Extra oil was added into the vial once compound precipitated out and then the system was re-equilibrated at 1000 rpm at room temperature (25° C.). Final concentration was determined by HPLC method as described below in Table 6a and 6b.

The target in the next series is T2, MOR (Homo sapiens, UniProt P35372).
T2 construct: expressed in transfected cells; membranes prepared from them
Description: Opioid receptor binding assay, MOR ([3H]DAMGO). The conditions noted are these: MOR, MaxDose 10000 nM.

The target in a further series is T3, DOR (Homo sapiens, UniProt P41143).
T3 construct: expressed in transfected cells; membranes prepared from them
Description: Opioid receptor binding assay, DOR ([3H]-DADLE). The conditions noted are these: DOR, MaxDose 10000 nM.

Series [3] in a line: Physical characterization of solid state drug substance (PLM, XRPD, DSC, TGA). The series is classed as physicochemical. Here is the method: The analysis of the physical characteristics of drug substances that were in a solid state was conducted using polarized light microscopy (PLM), X-ray powder diffractometer (XRPD) assessment, Differential Scanning calorimetry (DSC) and Thermal Gravimetric Analysis (TGA). For PLM, samples were dispersed in immersion oil and were observed using an ocular lens (10×) and objective lens (20×) under crossed polarizers. For XRPD, samples were run on a diffractometer using the following method: Tube—Cu: K-alpha (λ=1.54179 Å); Generator—Voltage 40 kV, Current 40 mA; Scan scope—3 to 40°; sample rotation speed—15 rpm; scanning rate—10 deg/min. For DSC, ˜1 mg of sample was tested using a crimped aluminum pan and covered by a lid with a hole, heated from room temperature to 300° C. at a speed of 10° C./minute. For TGA, 2-5 mg of sample was placed in an open platinum pan and heated from room temperature to 300° C. at a rate of 10° C./minute.

A short description of series [4]: Dog pharmacokinetic studies, deep intramuscular. The series is classed as in vivo, Beagle dogs. The conditions noted are these: dog IM, Cottonseed + 1% Benzyl Alcohol. As to the method:
The purpose of this study is to determine the pharmacokinetics of test compounds in plasma, following deep intramuscular administration to Beagle dogs (n=3, unless otherwise specified).
The dose formulation (concentration−400 mg base equivalents/ml in sesame oil+1% benzyl alcohol, unless otherwise specified) was administered via deep intramuscularly (unless otherwise specified). The injection vehicle was also dosed via deep intramuscular route (unless otherwise specified) on contralateral site of each animal at study initiation. The animals were sedated with Propofol at 6 mg/kg via IV administration. Following sedation hair was carefully removed from around the injection site and the area gently cleaned. Care will be taken to avoid irritating skin during shaving and cleaning the injection site. Then dogs will be dosed with deep IM administration. At least 2.5 cm depth from the surface into the central aspect of the quadriceps or biceps femoris muscle, by angling the needle toward the femur. If the needle hits the femur, simply draws back slightly and then inject. The dose volume will be determined by the animals' body weight collected on the morning of dosing day. For repeated administration, the injection sites may be rotated to minimize tissue injury.
Blood samples were collected from a peripheral vessel from restrained, non-sedated animals per sampling time point.
Approximately 0.8 mL blood will be collected at each time point.
Each collected blood sample was centrifuged for 4 minutes at 4° C. and 10000 rpm for plasma collection. Plasma was collected and transferred into a pre-labeled PP tube in dry ice at each time point and precipitated immediately using ACN at a ratio of 1:4 (plasma:ACN). Centrifuged again (10 minutes, 12000 rpm) and obtain the supernatant.
After terminal collection, all supernatant was stored at approximately −80° C. F until bioanalysis.
LC-MS/MS methods for the quantitative determination of test compound in biological matrix were developed. […] The sample analysis was performed concurrently with a set of calibration standards and two sets of QC samples using the LC-MS/MS method.
Plasma concentration versus time data was analyzed by non-compartmental approaches using the Phoenix WinNonlin 6.3 software program. Cmax, Tmax, T1/2, AUC(0-t), AUC(0-inf), MRT(0-t), MRT(0-inf) and graphs of plasma concentration versus time profile were prepared.

Series [5] in a line: Polymorph screening of solid state drug substances. The conditions noted are these: for XRPD results (Dried): stirred 50 °C 72 hours, solids dried; for Visual observation 50° C. / Visual observation RT: target conc. 100 mg/ml.

Each structure is given as a SMILES string. Where only a bound is given, the exact number is not on record here.

T2 sequence (P35372 whole entry): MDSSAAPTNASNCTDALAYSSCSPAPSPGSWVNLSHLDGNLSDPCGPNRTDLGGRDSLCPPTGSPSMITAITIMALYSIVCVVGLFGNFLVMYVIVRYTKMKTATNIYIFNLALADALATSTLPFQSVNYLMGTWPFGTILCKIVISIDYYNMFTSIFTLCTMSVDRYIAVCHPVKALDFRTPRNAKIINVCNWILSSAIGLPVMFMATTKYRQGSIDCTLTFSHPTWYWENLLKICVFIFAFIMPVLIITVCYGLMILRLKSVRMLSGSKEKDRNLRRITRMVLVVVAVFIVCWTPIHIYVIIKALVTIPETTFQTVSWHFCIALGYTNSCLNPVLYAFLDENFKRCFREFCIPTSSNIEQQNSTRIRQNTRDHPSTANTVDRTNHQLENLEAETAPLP
T3 sequence (P41143 whole entry): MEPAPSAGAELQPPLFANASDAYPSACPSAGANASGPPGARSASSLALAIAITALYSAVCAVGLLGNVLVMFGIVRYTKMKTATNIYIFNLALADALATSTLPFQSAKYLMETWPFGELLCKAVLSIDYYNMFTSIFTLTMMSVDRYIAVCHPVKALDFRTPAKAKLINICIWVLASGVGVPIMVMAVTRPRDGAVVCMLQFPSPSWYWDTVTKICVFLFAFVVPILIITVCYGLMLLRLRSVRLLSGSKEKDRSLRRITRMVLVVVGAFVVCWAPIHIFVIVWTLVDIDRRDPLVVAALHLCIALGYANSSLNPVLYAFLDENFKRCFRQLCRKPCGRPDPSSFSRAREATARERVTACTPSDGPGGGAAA
T1 sequence (P41145 whole entry): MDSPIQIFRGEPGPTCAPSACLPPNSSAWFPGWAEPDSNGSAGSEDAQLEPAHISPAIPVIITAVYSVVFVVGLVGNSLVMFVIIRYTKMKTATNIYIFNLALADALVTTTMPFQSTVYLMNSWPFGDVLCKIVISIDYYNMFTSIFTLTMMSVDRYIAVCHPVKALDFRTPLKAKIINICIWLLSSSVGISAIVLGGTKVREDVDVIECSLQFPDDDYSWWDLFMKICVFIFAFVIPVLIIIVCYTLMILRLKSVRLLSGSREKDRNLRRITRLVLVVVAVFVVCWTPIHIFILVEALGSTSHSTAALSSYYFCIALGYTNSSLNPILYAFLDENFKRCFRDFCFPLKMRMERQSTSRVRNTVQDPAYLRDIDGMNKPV

As to `CCCCCCCCOC(=O)Oc1ccc2c3c1O[C@H]1C(=O)CC[C@@]4(O)C(C2)N(CC2CC2)CC[C@]314` [Compound 23, (4aS,7aR,12bS)-3-(cyclopropylmethyl)-4a-hydroxy-7-oxo-2,3,4,4a,5,6,7,7a-octahydro-1H-4,12-methanobenzofuro[3,2-e]isoquinolin-9-yl octyl carbonate], in series [1], the “% remaining at time point in minutes, 0 min” value is recorded as 10%; the “% remaining at time point in minutes, 15 min” value (“% remaining … 15 min” below) was determined as 0%; the “% remaining at time point in minutes, 120 min” value (shortened to “% remaining … 120 min”) is given as 0%; the “% remaining at time point in minutes, 480 min” value (from here on “% remaining … 480 min”) was found to be 0%. Also, the “% remaining at time point in minutes, 1440 min” value (“% remaining … 1440 min” for short) in series [1] is reported as 0%. For the same molecule, the “%Inh@MaxDose” value at KOR was found to be 101.6%. For the same molecule, the “Approximate Solubility (mg/mL) in Excipient: Cottonseed oil” value in series [2] (Cottonseed oil) is above 407.7 mg/mL. For the same molecule, the “Approximate Solubility (mg/mL) in Excipient: Sesame oil” value in series [2] is above 423.9 mg/mL. Moreover, on MOR, the “%Inh@MaxDose” value was determined as 98.7%. Besides, the “%Inh@MaxDose” value at DOR is 95.6%.

As for `C=C1CC[C@@]2(O)C3Cc4ccc(OC(=O)CCCCCCCCCCCCCCC)c5c4[C@@]2(CCN3CC2CC2)[C@H]1O5` [Compound 56, (4aS,7aS,12bS)-3-(cyclopropylmethyl)-4a-hydroxy-7-methylene-2,3,4,4a,5,6,7,7a-octahydro-1H-4,12-methanobenzofuro[3,2-e]isoquinolin-9-yl palmitate, reference compound], in series [1], the “% remaining at time point in minutes, 0 min” value is reported as 100%; the “% remaining … 15 min” value is 73.1%; the “% remaining … 120 min” value amounted to 56.7%; the “% remaining … 480 min” value amounted to 35.8%. Also, the “% remaining … 1440 min” value in series [1] is reported as 16.8%. For the same molecule, in series [3] (at 120° C., heated from room temperature at 10° C./minute), the “Thermal Gravimetric Analysis, weight loss” value is reported as “Weight loss of 0.1815%”.

As to `C=C1CC[C@@]2(O)C3Cc4ccc(OCOC(=O)CCCCCCCCCCCCC)c5c4[C@@]2(CCN3CC2CC2)[C@H]1O5` [Compound 45, (((4aS,7aS,12bS)-3-(cyclopropylmethyl)-4a-hydroxy-7-methylene-2,3,4,4a,5,6,7,7a-octahydro-1H-4,12-methanobenzofuro[3,2-e]isoquinolin-9-yl)oxy)methyl tetradecanoate], the “%Inh@MaxDose” value was 100.1% on KOR, 93.7% on MOR and 71.8% on DOR. The “AUC0-inf (ng · h/mL) prodrug” value in series [4] (30 mg/kg) is 100 ng·h/mL; in series [4] (48 mg/kg) it was 267 ng·h/mL. Also, the “Half-life t1/2 (hour) prodrug” value in series [4] (30 mg/kg) worked out at 151 h; in series [4] (48 mg/kg), 171 h.

For the molecule `C=C1CC[C@@]2(O)C3Cc4ccc(OC(=O)NC(C)(C)C)c5c4[C@@]2(CCN3CC2CC2)[C@H]1O5` [Compound 40, (4aS,7aS,12bS)-3-(cyclopropylmethyl)-4a-hydroxy-7-methylene-2,3,4,4a,5,6,7,7a-octahydro-1H-4,12-methanobenzofuro[3,2-e]isoquinolin-9-yl tert-butylcarbamate], the “X-ray Powder Diffraction” value in series [3] (solid state drug substance, XRPD/PLM) is “Crystal form with partial”. The “XRPD results (Dried)” value in series [5] (Acetone) is “Amorphous”; in series [5] (EtOAc), “Pattern A”; in series [5] (Heptane) it was “Pattern A”; in series [5] (Isopropanol), “Amorphous”; in series [5] (MTBE) it was “Amorphous”. Moreover, the “Visual observation 50° C.” value in series [5] (Acetone) is given as “Clear”; in series [5] (EtOAc) it was “Clear”; in series [5] (Heptane), “Slurry”; in series [5] (Isopropanol), “Clear”; in series [5] (MTBE) it was “Clear”. The “Visual observation RT” value is on record as “Slurry” in series [5] (Acetone); “Slurry” in series [5] (EtOAc); “Slurry” in series [5] (Heptane); “Slurry” in series [5] (Isopropanol); “Clear” in series [5] (MTBE). In addition, the “Comment: stability of initial crystal form (pattern A)” value in series [5] (polymorph screen over Heptane, MTBE, Isopropanol, EtOAc, Acetone) is listed as “stable form. Same crystal form”.

For the molecule `C=C1CC[C@@]2(O)C3Cc4ccc(OCOC(=O)OCCCCCCCCCCCCCC)c5c4[C@@]2(CCN3CC2CC2)[C@H]1O5` [Compound 25, (((4aS,7aS,12bS)-3-(cyclopropylmethyl)-4a-hydroxy-7-methylene-2,3,4,4a,5,6,7,7a-octahydro-1H-4,12-methanobenzofuro[3,2-e]isoquinolin-9-yl)oxy)methyl tetradecyl carbonate], in series [1], the “% remaining at time point in minutes, 0 min” value stood at 100%; the “% remaining … 15 min” value is 82.6%; the “% remaining … 120 min” value came out at 69.3%; the “% remaining … 480 min” value worked out at 62.2%. The “% remaining … 1440 min” value in series [1] is listed as 51.7%. The “%Inh@MaxDose” value on KOR is recorded as 76.9%. For the same molecule, the “%Inh@MaxDose” value on MOR was 87.3%. Besides, the “%Inh@MaxDose” value on DOR worked out at 62%.

For the molecule `C=C1CC[C@@]2(O)C3Cc4ccc(OC(=O)OCCCCCCCCCCCCC)c5c4[C@@]2(CCN3CC2CC2)[C@H]1O5` [Compound 30, (4aS,7aS,12bS)-3-(cyclopropylmethyl)-4a-hydroxy-7-methylene-2,3,4,4a,5,6,7,7a-octahydro-1H-4,12-methanobenzofuro[3,2-e]isoquinolin-9-yl tridecyl carbonate], in series [1], the “% remaining at time point in minutes, 0 min” value was found to be 100%; the “% remaining … 15 min” value was found to be 65.7%; the “% remaining … 120 min” value amounted to 40.3%; the “% remaining … 480 min” value is given as 30.5%. For the same molecule, the “% remaining … 1440 min” value in series [1] is reported as 22.2%. The “%Inh@MaxDose” value at KOR came to 97.6%. Moreover, in series [2], the “Approximate Solubility (mg/mL) in Excipient: Sesame oil” value was in the range of 252.55 to 398.6 mg/mL. Also, at MOR, the “%Inh@MaxDose” value was found to be 82.5%. Moreover, the “%Inh@MaxDose” value on DOR came out at 84.3%.
